This is an account of results in PMC7835349 (Communications Biology, 2021).

“And” between values parts separate entries of the source, which are not always exact repeats. Equal entries are not always repeated.

One data set is described as follows: in vivo. As to conditions: beagle, dog.
Another data set relates to cleaved caspase-3 (CC3). As to the kind of experiment: Cleaved caspase-3 immunohistochemistry of RS4;11 tumours. The class given is in vivo, C.B-17 SCID mouse. As to conditions: RS4;11 tumours, 1, 5 and 24 h post dose. How it is done: Formalin fixed paraffin embedded (FFPE) slides were cut on a rotary microtome at 4 µm and placed onto Superfrost plus slides (VWR) dried thoroughly, and then baked for 20 min in an oven at 60 °C. Slides were then stained on a Ventana Discovery XT using a CCI standard protocol and DAB Map Kit (Ventana cat # 760-124). The slides were then incubated in the primary CC3 (Cell Signaling Technology) antibody at 100µL per slide of a 1:50 dilution for 1 h. The secondary antibody was a biotinylated goat anti-rabbit from Vector Labs (PK-6101) made according to manufacturer’s instructions and put in an auto-dispense container. The slides were incubated in the secondary antibody for 30 min and then counterstained with Hematoxylin (Ventana 760-2021) for 4 min and blued with bluing reagent (Ventana 760-2037) for 4 min. After the Ventana run was complete, slides were taken off the machine, rinsed in reaction buffer, dehydrated, cleared and mounted with permount. Digital slide images were acquired at 20 x magnification using the Aperio Scanscope XT (Vista, CA).

A further data set is described as follows: Aqueous solubility. As to conditions: aqueous buffers at physiological pH. The class given is physicochemical.
For another data set, the system named is platelets. Put plainly: Platelet count in rats. The class given is in vivo. From the text:
Supplementary Figure 7. Effect of AZD4320 and AZD4320-dendrimer conjugates on platelet count in rats. Data for dendrimers was collected from the same rats for which cardiovascular data were acquired (see Fig. 4a and b). Data for AZD4320 was collected from a non-cardiovascular study. Each symbol represent data from an individual rat. Colours representing each compound and dose are shown on the figure.
(1 picture or pasted object on this page, not shown here)

Data set [1] in a line: Mathematical model of in vivo disposition of drug-dendrimer conjugates. On the set-up: species or system mouse. As to conditions: best fit of Eq. (3) to released AZD4320 in RS4;11 tumour.

For orientation: solubility means the concentration that dissolves in the medium under given conditions. With `CN(CCO)CCC(CSc1ccccc1)Nc1ccc(S(=O)(=O)NC(=O)c2ccc(N3CCC(C(O)c4ccccc4-c4ccc(Cl)cc4)CC3)cc2)cc1S(=O)(=O)C(F)(F)F` (stereo not drawn) [AZD4320], the MTD at 48 h in “in vivo” is less than 3 mg/kg. For the same compound, the “cleaved caspase-3 induction by IHC” value in the data set with cleaved caspase-3 (CC3) is “robust cleaved caspase induction”. This compound also displayed a solubility in the data set “Aqueous solubility” of less than 1 µg/mL. In addition, the “Platelet count, individual rat” value in the data set on platelets (10mg/kg, Day 2 (3h post dose), 10 mg/kg) was 31 10^9/L and 28 10^9/L and 46 10^9/L and 13 10^9/L. In addition, in the data set with platelets (rat, Dose 10 mg/kg (AZD4320 equivalent 10 for AZD4320, 3 for conjugates)), the Platelets post-dose is 30 109/l. Further, the “Constant for return of released AZD4320 from tumour tissue to systemic circulation (first order) ktu” value in data set [1] came out at 0.053 h⁻¹.
